Measured values reported in paper PMC7413254 (Nature Communications, 2020).
Read-outs that look alike come from different tables or passages of the source.

Key:
non-expressing oocytes [1] = experiment: cells; assay type: cell-based, Xenopus laevis; settings: non-expressing oocytes, total [3H]CQ transport, normalised to the oocyte type control
Procedure, shortened: (§1)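 Assay buffer ND96 (10 mM MES, 10 mM Tris-base) held at pH 5.5 to mimic vacuole lumen; uptake measured inward from this acidic medium over 1.5 h at 27.5 °C.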

PfCRT^3D7 [2] = target: T1, PfCRT^3D7 (Plasmodium falciparum, UniProt Q8IBZ9); experiment: cell-based; assay type: cell-based; settings: PfCRT3D7 oocytes, total [3H]CQ transport, normalised to the oocyte type control
T1 sequence (Q8IBZ9 59-398): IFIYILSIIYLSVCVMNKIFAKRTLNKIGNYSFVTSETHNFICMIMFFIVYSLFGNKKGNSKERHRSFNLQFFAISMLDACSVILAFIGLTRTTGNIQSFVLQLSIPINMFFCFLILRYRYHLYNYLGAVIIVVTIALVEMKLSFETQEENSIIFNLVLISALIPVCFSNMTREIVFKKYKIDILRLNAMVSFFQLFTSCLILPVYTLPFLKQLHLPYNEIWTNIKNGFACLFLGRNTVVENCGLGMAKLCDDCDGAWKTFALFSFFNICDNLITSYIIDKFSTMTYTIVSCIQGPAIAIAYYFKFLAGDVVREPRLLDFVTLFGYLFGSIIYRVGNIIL
Procedure, shortened: as §1

PfCRT^Dd2 [3] = target: T2, PfCRT^Dd2 (Plasmodium falciparum, UniProt Q9N623, A220S/I356T/K76T/M74I/N326S/N75E/Q271E/R371I); experiment: [3H]CQ uptake into Xenopus oocytes, cis-inhibition by unlabelled solute; assay type: cell-based; settings: PfCRTDd2 oocytes, background [3H]CQ accumulation subtracted, normalised to oocyte type control
T2 sequence (Q9N623 whole entry A220S/I356T/K76T/M74I/N326S/N75E/Q271E/R371I): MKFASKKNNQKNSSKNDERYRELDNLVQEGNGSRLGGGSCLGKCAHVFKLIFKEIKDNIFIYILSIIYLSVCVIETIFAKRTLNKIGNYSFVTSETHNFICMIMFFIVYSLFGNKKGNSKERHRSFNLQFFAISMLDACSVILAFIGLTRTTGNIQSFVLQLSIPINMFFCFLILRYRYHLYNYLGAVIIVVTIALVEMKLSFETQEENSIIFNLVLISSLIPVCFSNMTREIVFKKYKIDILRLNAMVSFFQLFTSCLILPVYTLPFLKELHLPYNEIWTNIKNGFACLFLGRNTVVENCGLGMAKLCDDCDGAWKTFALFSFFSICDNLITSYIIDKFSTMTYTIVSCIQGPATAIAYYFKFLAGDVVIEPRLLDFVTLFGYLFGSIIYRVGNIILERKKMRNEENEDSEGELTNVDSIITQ
Procedure, shortened: as §1

PfCRT^Ecu1110 [4] = target: T3, PfCRT^Ecu1110 (Plasmodium falciparum, UniProt Q9N623, A220S/I356L/K76T/N326D); experiment: as above; assay type: cell-based; settings: for Uptake of [3H]CQ (% PfCRTEcu1110 control), cis-inhibition / PfCRT-mediated [3H]CQ transport, cis-inhibition (% PfCRTEcu1110 control): PfCRTEcu1110 oocytes; for Uptake of [3H]CQ (% PfCRTEcu1110 control), cis-inhibition: total [3H]CQ transport, normalised to the oocyte type control; for PfCRT-mediated [3H]CQ transport, cis-inhibition (% PfCRTEcu1110 control): background [3H]CQ accumulation subtracted, normalised to oocyte type control; for [3H]CQ transport (% PfCRTEcu1110 control), cis-inhibition, PfCRTEcu1110: PfCRT-mediated component (background subtracted), sheet title says normalised to PfCRTDd2 control, mean ± SEM, SEM
T3 sequence (Q9N623 whole entry A220S/I356L/K76T/N326D): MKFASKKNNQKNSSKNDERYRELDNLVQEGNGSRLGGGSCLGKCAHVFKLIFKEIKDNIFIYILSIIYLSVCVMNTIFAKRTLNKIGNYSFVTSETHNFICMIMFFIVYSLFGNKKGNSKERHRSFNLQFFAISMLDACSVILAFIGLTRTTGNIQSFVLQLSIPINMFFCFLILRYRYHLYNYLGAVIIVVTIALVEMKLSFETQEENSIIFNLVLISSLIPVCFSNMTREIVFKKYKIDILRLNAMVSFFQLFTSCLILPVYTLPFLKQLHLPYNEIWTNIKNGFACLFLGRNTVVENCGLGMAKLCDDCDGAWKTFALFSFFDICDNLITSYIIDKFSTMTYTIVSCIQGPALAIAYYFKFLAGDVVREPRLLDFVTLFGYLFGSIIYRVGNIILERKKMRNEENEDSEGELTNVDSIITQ
Procedure, shortened: as §1

non-expressing oocytes [5] = assay type: cell-based, Xenopus laevis; settings: non-expressing oocytes, total [3H]CQ transport, normalised to the oocyte type control
Procedure, shortened: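 Oocytes (ten per treatment, ≥4 independent frogs/days) were preloaded by injecting VF-6 in 25 nL ND96 at pH 5.0, 5.5, 6.0 or 7.0, or Na^+-free choline buffer, then uptake run 1.5 h, 27.5 °C, ND96 pH 5.5 by default. Internal concentrations assumed ~400 nL oocyte volume.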

PfCRT^3D7 [6] = target: T1, PfCRT^3D7; experiment: cell-based; assay type: cell-based; settings: PfCRT3D7 oocytes; for Uptake of [3H]CQ (% PfCRT3D7 control), trans-stimulation: total [3H]CQ transport, normalised to the oocyte type control; for PfCRT-mediated [3H]CQ transport, trans-stimulation (% PfCRT3D7 control): normalised to oocyte type control
Procedure, shortened: (§2)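 Transport measured in Xenopus oocytes expressing the transporters, 1.5 h at 27.5 °C in ND96 pH 5.5 unless noted. For trans-stimulation, VF-6 injected in 25 nL ND96 at pH 5.0–7.0 or Na^+-free (choline) buffer; intracellular levels based on ~400 nL oocyte volume. Ten oocytes per treatment, ≥4 experiments.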

PfCRT^Dd2 [7] = target: T2, PfCRT^Dd2; experiment: cell-based; assay type: cell-based; settings: for PfCRT-mediated [3H]CQ transport, trans-stimulation (% PfCRTDd2 control): normalised to oocyte type control; for [3H]CQ transport (% PfCRTDd2 control), trans-stimulation, PfCRTDd2: PfCRT-mediated component (background subtracted), mean ± SEM, SEM
Procedure, shortened: as §2

PfCRT^Ecu1110 [8] = target: T3, PfCRT^Ecu1110; experiment: cell-based; assay type: cell-based; settings: for Uptake of [3H]CQ (% PfCRTEcu1110 control), trans-stimulation / PfCRT-mediated [3H]CQ transport, trans-stimulation (% PfCRTEcu1110 control): PfCRTEcu1110 oocytes; for Uptake of [3H]CQ (% PfCRTEcu1110 control), trans-stimulation: total [3H]CQ transport, normalised to the oocyte type control; for PfCRT-mediated [3H]CQ transport, trans-stimulation (% PfCRTEcu1110 control): normalised to oocyte type control; for [3H]CQ transport (% PfCRTDd2 control), trans-stimulation, PfCRTEcu1110: PfCRT-mediated component (background subtracted), sheet title says normalised to PfCRTDd2 control, mean ± SEM, SEM
Procedure, shortened: as §2

PfNT1 = target: T4, PfNT1 (Plasmodium falciparum, UniProt Q8IDM6); experiment: cell-based; assay type: cell-based; settings: PfNT1 oocytes, total [3H]CQ transport, normalised to the oocyte type control
T4 construct: expressed in transfected cells; host or cells: Xenopus laevis oocytes (stage V-VI), cRNA-injected
T4 sequence (Q8IDM6 whole entry): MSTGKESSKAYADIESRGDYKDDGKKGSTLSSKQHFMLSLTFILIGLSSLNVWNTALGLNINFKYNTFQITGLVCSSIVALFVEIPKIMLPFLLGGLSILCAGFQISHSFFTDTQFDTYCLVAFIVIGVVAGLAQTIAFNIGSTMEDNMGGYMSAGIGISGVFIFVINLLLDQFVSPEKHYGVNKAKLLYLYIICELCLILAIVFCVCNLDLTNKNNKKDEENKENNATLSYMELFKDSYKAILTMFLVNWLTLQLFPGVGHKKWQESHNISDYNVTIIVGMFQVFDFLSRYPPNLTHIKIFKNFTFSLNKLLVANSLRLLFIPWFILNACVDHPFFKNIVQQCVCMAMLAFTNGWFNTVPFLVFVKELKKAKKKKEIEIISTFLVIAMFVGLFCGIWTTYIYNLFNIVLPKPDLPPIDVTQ
Procedure, shortened: as §2

PfCRT = experiment: Potential co-substrates tested for influx of VF-6 via PfCRT into the oocyte; assay type: cell-based, Plasmodium falciparum; set-up: key: X: Compounds that have been tested as potential co-substrates but are not required for influx of VF-6 via PfCRT into the oocyte
[9] = [test solute]i = 45 mM (30 mM for some solutes due to solubility)
[10] = [test solute]i = 5 mM (intracellular)
[11] = [test solute]i = 45 mM (intracellular; 30 mM for some solutes due to solubility)
[12] = [test solute]i = 5 mM (injected)

In the case of PVNF [PF-4], the “Uptake of [3H]CQ (% non-expressing oocyte control), cis-inhibition” value (non-expressing oocytes [1]; [test solute] = 0.5 mM) is reported as 98 ± 4.8 % non-expressing oocyte control, the “Uptake of [3H]CQ (% non-expressing oocyte control), cis-inhibition” value (non-expressing oocytes [1]; [test solute] = 1 mM) is reported as 99 ± 2.6 % non-expressing oocyte control and the “Uptake of [3H]CQ (% non-expressing oocyte control), cis-inhibition” value (non-expressing oocytes [1]; [test solute] = 2 mM) is reported as 98 ± 3.6 % non-expressing oocyte control. The “Uptake of [3H]CQ (% PfCRT3D7 control), cis-inhibition” value (PfCRT^3D7 [2]; [test solute] = 0.5 mM) was 99 ± 4.7 % PfCRT3D7 control, the “Uptake of [3H]CQ (% PfCRT3D7 control), cis-inhibition” value (PfCRT^3D7 [2]; [test solute] = 1 mM) was 100 ± 5.6 % PfCRT3D7 control and the “Uptake of [3H]CQ (% PfCRT3D7 control), cis-inhibition” value (PfCRT^3D7 [2]; [test solute] = 2 mM) was 101 ± 5.3 % PfCRT3D7 control. For the same substance, the “PfCRT-mediated [3H]CQ transport, cis-inhibition (% PfCRTDd2 control)” value (PfCRT^Dd2 [3]; [test solute] = 0.5 mM) was 60 ± 3.3 % PfCRTDd2 control, the “PfCRT-mediated [3H]CQ transport, cis-inhibition (% PfCRTDd2 control)” value (PfCRT^Dd2 [3]; [test solute] = 1 mM) was 51 ± 0.3 % PfCRTDd2 control and the “PfCRT-mediated [3H]CQ transport, cis-inhibition (% PfCRTDd2 control)” value (PfCRT^Dd2 [3]; [test solute] = 2 mM) was 39 ± 2.1 % PfCRTDd2 control. The “Uptake of [3H]CQ (% PfCRTEcu1110 control), cis-inhibition” value (PfCRT^Ecu1110 [4]; [test solute] = 0.5 mM) was 65 ± 4.3 % PfCRTEcu1110 control, the “Uptake of [3H]CQ (% PfCRTEcu1110 control), cis-inhibition” value (PfCRT^Ecu1110 [4]; [test solute] = 1 mM) was 59 ± 3.3 % PfCRTEcu1110 control and the “Uptake of [3H]CQ (% PfCRTEcu1110 control), cis-inhibition” value (PfCRT^Ecu1110 [4]; [test solute] = 2 mM) was 41 ± 2.4 % PfCRTEcu1110 control. For the same substance, the “PfCRT-mediated [3H]CQ transport, cis-inhibition (% PfCRTEcu1110 control)” value (PfCRT^Ecu1110 [4]; [test solute] = 0.5 mM) was 61 ± 2.6 % PfCRTEcu1110 control, the “PfCRT-mediated [3H]CQ transport, cis-inhibition (% PfCRTEcu1110 control)” value (PfCRT^Ecu1110 [4]; [test solute] = 1 mM) was 51 ± 4.2 % PfCRTEcu1110 control and the “PfCRT-mediated [3H]CQ transport, cis-inhibition (% PfCRTEcu1110 control)” value (PfCRT^Ecu1110 [4]; [test solute] = 2 mM) was 37 ± 2.9 % PfCRTEcu1110 control. For the same substance, the “[3H]CQ transport (% PfCRTEcu1110 control), cis-inhibition, PfCRTEcu1110” value (PfCRT^Ecu1110 [4]; [test solute] = 1 mM) was 16 ± 0.2 % PfCRTEcu1110 control, the “[3H]CQ transport (% PfCRTEcu1110 control), cis-inhibition, PfCRTEcu1110” value (PfCRT^Ecu1110 [4]; [test solute] = 2 mM) was 12 ± 0.3 % PfCRTEcu1110 control and the “Uptake of [3H]CQ (% non-expressing oocyte control), trans-stimulation” value (non-expressing oocytes [5]; [test solute]i = 5 mM) was 99 ± 2.7 % non-expressing oocyte control. The “Uptake of [3H]CQ (% non-expressing oocyte control), trans-stimulation” value (non-expressing oocytes [5]; [9]) was 99 ± 3.4 % non-expressing oocyte control, the “Uptake of [3H]CQ (% PfCRT3D7 control), trans-stimulation” value (PfCRT^3D7 [6]; [test solute]i = 5 mM) was 138 ± 4.2 % PfCRT3D7 control and the “Uptake of [3H]CQ (% PfCRT3D7 control), trans-stimulation” value (PfCRT^3D7 [6]; [9]) was 163 ± 7.4 % PfCRT3D7 control. The “PfCRT-mediated [3H]CQ transport, trans-stimulation (% PfCRT3D7 control)” value (PfCRT^3D7 [6]; [10]) was 130 ± 3.2 % PfCRT3D7 control, the “PfCRT-mediated [3H]CQ transport, trans-stimulation (% PfCRT3D7 control)” value (PfCRT^3D7 [6]; [11]) was 157 ± 4.4 % PfCRT3D7 control and the “Uptake of [3H]CQ (% PfCRTDd2 control), trans-stimulation” value (PfCRT^Dd2 [7]; PfCRTDd2 oocytes, [test solute]i = 45 mM (30 mM for some solutes due to solubility), total [3H]CQ transport, normalised to the oocyte type control) was 115 ± 2.7 % PfCRTDd2 control. The “PfCRT-mediated [3H]CQ transport, trans-stimulation (% PfCRTDd2 control)” value (PfCRT^Dd2 [7]; [test solute]i = 5 mM (intracellular), PfCRTDd2 oocytes) was 99 ± 1.9 % PfCRTDd2 control, the “PfCRT-mediated [3H]CQ transport, trans-stimulation (% PfCRTDd2 control)” value (PfCRT^Dd2 [7]; [test solute]i = 45 mM (intracellular; 30 mM for some solutes due to solubility), PfCRTDd2 oocytes) was 112 ± 0.9 % PfCRTDd2 control and the “[3H]CQ transport (% PfCRTDd2 control), trans-stimulation, PfCRTDd2” value (PfCRT^Dd2 [7]; [12]) was 99 ± 1.9 % PfCRTDd2 control. For the same substance, the “[3H]CQ transport (% PfCRTDd2 control), trans-stimulation, PfCRTDd2” value (PfCRT^Dd2 [7]; [9]) was 112 ± 0.9 % PfCRTDd2 control, the “Uptake of [3H]CQ (% PfCRTEcu1110 control), trans-stimulation” value (PfCRT^Ecu1110 [8]; [test solute]i = 5 mM) was 120 ± 1.1 % PfCRTEcu1110 control and the “Uptake of [3H]CQ (% PfCRTEcu1110 control), trans-stimulation” value (PfCRT^Ecu1110 [8]; [9]) was 135 ± 1.4 % PfCRTEcu1110 control. For the same substance, the “PfCRT-mediated [3H]CQ transport, trans-stimulation (% PfCRTEcu1110 control)” value (PfCRT^Ecu1110 [8]; [10]) was 118 ± 0.3 % PfCRTEcu1110 control, the “PfCRT-mediated [3H]CQ transport, trans-stimulation (% PfCRTEcu1110 control)” value (PfCRT^Ecu1110 [8]; [11]) was 130 ± 3.2 % PfCRTEcu1110 control and the “[3H]CQ transport (% PfCRTDd2 control), trans-stimulation, PfCRTEcu1110” value (PfCRT^Ecu1110 [8]; [12]) was 36 ± 1.3 % PfCRTEcu1110 control. The “[3H]CQ transport (% PfCRTDd2 control), trans-stimulation, PfCRTEcu1110” value (PfCRT^Ecu1110 [8]; [9]) was 39 ± 1.7 % PfCRTEcu1110 control, the “Uptake of [3H]CQ (% PfNT1 control), trans-stimulation” value (PfNT1; [test solute]i = 5 mM) was 99 ± 4.2 % PfNT1 control and the “Uptake of [3H]CQ (% PfNT1 control), trans-stimulation” value (PfNT1; [9]) was 100 ± 2.9 % PfNT1 control. For the same substance, the “Tested as potential co-substrate but not required for influx of VF-6 via PfCRT into the oocyte” value (PfCRT) was “X”.
